{
  "source": "patent US8143254B2",
  "about": "“Methods for modulating ion channels” (Cornell Research Foundation, Inc., priority 2005, dated 2012)",
  "test_system": "Kv3.4",
  "assay": "TEVC of X. laevis oocytes expressing Kv3.4",
  "format": "cell-based",
  "details": "for mean inhibition at 0 mV relative to +50 mV: Kv3.4, voltage dependence of block",
  "source_text": "Kv2.1 mutants were constructed using the QuickChange Multi Site-Directed Mutagenesis Kit (Stratagene, La Jolla, Calif.). […] For oocyte expression, Kv3.4 was in pBF1, Kv4.2 was in pRAT. cRNA transcripts were produced from SacII-linearized (Kv2.1), Mlullinearized (Kv3.4) and Not1-linearized (Kv4.2) DNA templates using the T3 (Kv2.1), SP6 (Kv3.4) and T7 (Kv4.2) mMessage mMachine kits (Ambion, Austin, Tex.). cRNA was quantified by spectrophotometry and its size integrity verified by gel electophoresis. Defolliculated stage V and VI Xenopus laevis oocytes (purchased from Nasco, Grand Island, N.Y.) were injected with 5 ng of cRNA encoding Kv2.1, Kv3.4 or Kv4.2. Chinese Hamster Ovary (CHO) cells were transfected with 0.25 μg Kv2.1 cDNA, 2 μg blank plasmid and 2 μg Green fluorescent Protein in pBOB using Supetfect transfection reagent (Qiagen) 24 hours before whole-cell voltage clamp studies.\nOocytes were bathed in a small-volume Warner oocyte bath and viewed with a Fisher dissection microscope. Bath solution for whole-cell oocyte recordings was (in mM): 96 NaCl, 4 KCl, 0.7 MgCl2, 1 CaCl2, 10 HEPES (pH 7.4); whole-cell oocyte TEVC pipettes were of 0.2-2 M resistance when filled with 3 M KCl. Experiments were performed 24-48 hours after cRNA injection. For assessment of current-voltage relationships in the absence or presence of dabco derivatives, oocytes were held at −80 mV, stepped for 2 seconds at voltages between −80 mV and +60 mV in 20 mV steps (Kv2.1) or between −80 and +50 mV in 10 mV steps (Kv3.4), then held for 500 ms at −40 mV before returning to the holding potential. For assessment of block during wash-in of dabco derivatives at a single voltage, oocytes were held at −80 mV, and repetitively stepped to 0 mV for 2 s with an interpulse interval of 10 s or 60 s as indicated. A range of concentrations of dabco or dabco derivatives were washed in via the bath solution during repetitive single-voltage pulses (after an initial period of 5 pulses with control solution to ensure current stabilization) until equilibrium block was achieved, to establish dose-responses. […] Washout was performed after the highest concentration of blocker was washed in. In cases where washout was achieved, only those recordings in which current returned to within 10% of original current level were used for construction of dose-response curves. […] As controls for this protection analysis, JC638.2a or MTSET were washed in alone until equilibrium block, then washed out.\nData analysis: Current-voltage relationships were obtained by measuring peak current during depolarizing pulses. Inhibition constants for DABCO blockers were calculated after generating a dose response curve by fitting with a logistic dose-response function y=A2+[A1−A2/1+(x/x0)^p], where A1 is the maximum response plateau, A2 is the minimum response plateau, x is drug concentrator, x0 is the IC50, and p the Hill slope. Data analysis was performed using […] 9 (Axon Instruments, Foster City, Calif.) and tabulated in Excel 5.0. Graphs were generated using Origin 6.1. Data are expressed as mean±SEM, with n specifying the number of independent experiments. Statistical significance was assessed by one-way ANOVA with p<0.05 being indicative of significance.",
  "data": [
    {"smiles": "CCCCCCCCCCCC[N+]12CCN(CC1)CC2", "note": "[JE188, 1-aza-4-azonia-4-dodecylbicyclo[2.2.2]octane]", "values": [
      {"measurement": "inhibition of Kv3.4", "setting": "50 μM", "value": "significantly inhibited"},
      {"measurement": "inhibition of Kv3.4", "setting": "250 μM", "value": "almost complete inhibition"},
      {"measurement": "mean inhibition at 0 mV relative to +50 mV", "value": 2, "unit": "fold"}
    ]},
    {"smiles": "CCCCCCCCCCCCCCCC[N+]12CCN(CC1)CC2", "note": "[TA279, 1-aza-4-azonia-4-hexadecylbicyclo[2.2.2]octane]", "values": [
      {"measurement": "inhibition of Kv3.4", "setting": "1 μM", "value": "inhibiting"},
      {"measurement": "inhibition of Kv3.4", "setting": "5 mM", "value": "almost complete inhibition"},
      {"measurement": "mean inhibition at 0 mV relative to +50 mV", "value": 1.5, "unit": "fold"},
      {"measurement": "sensitivity of Kv3.4 channels to compound relative to externally-applied TEA", "setting": "externally applied", "value": 500, "unit": "fold"}
    ]}
  ]
}
